{
  "source": "patent US20220073525A1",
  "about": "“COMPOSITIONS FOR INHIBITING UBIQUITIN SPECIFIC PROTEASE 1” (FORMA Therapeutics, Inc., priority 2019, published 2022)",
  "data": [
    {"target": "USP1 (Homo sapiens, UniProt O94782)", "sequence (O94782 whole entry)": "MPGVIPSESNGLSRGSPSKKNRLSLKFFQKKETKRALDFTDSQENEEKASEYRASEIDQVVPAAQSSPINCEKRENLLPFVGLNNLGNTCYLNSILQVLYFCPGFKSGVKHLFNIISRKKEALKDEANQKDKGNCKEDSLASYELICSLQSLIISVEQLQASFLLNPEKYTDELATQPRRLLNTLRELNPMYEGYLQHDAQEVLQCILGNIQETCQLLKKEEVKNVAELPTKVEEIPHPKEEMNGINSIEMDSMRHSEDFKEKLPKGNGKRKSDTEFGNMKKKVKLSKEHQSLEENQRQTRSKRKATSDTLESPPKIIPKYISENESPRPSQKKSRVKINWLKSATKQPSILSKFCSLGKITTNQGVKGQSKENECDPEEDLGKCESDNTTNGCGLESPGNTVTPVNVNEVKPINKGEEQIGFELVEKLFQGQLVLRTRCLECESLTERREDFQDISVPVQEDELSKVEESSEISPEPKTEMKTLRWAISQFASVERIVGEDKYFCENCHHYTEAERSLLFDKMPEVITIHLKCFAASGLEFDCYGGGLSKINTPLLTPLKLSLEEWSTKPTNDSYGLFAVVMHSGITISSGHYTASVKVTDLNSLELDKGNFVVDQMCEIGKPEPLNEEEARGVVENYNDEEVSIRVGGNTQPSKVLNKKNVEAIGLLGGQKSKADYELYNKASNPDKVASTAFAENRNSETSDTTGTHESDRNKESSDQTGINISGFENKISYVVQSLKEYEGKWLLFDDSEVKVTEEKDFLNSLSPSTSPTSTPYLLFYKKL", "sequence (Q8TAF3 whole entry partner)": "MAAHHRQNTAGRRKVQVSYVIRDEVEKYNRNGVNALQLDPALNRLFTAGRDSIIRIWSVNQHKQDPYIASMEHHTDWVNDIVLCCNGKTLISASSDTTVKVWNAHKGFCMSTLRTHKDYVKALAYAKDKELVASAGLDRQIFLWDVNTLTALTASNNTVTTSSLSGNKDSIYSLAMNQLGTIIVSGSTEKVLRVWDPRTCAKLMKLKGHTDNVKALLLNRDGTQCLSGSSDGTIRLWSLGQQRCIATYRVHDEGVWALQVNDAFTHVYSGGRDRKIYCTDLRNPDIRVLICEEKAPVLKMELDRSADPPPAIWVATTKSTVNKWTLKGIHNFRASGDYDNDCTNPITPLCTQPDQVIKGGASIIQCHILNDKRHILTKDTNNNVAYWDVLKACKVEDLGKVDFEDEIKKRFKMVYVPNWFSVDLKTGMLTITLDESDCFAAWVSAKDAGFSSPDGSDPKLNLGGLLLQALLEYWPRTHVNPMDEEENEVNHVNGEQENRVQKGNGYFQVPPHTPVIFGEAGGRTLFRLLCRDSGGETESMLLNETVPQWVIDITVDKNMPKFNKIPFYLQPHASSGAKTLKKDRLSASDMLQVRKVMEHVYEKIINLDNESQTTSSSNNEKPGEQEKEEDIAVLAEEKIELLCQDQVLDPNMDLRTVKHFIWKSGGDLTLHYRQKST", "assay": "Biochemical Assay for USP1 Inhibition (Ub-Rho 110 fluorescence)", "conditions": "Table 5; 30 min preincubation, Enzyme 0.025 nM, Substrate Ub-Rho 110 25 nM; read-out: IC50 (μm)", "procedure,_shortened": "(§1)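 USP1 at 0.025 nM, preincubated 30 min with compound (25 μM to 1.3 nM, 10-point), then Ub-Rho 110 at 25 nM (<<Km) in Tris-HCl pH 8.0, 1 mM GSH, 0.03% BGG, 0.01% Triton X-100. Fluorescence read kinetically over 11 min; % inhibition versus no-enzyme and DMSO controls, IC50 from 4-parameter logistic fit.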", "units": {"IC50": "nM"}, "values": [
      {"compound": "COCCn1cc(C(F)(F)F)nc1-c1ccc(N2CCn3c(C)nc(-c4cccnc4C(C)C)c3C2)cc1", "note": "[Compound 63, 3-(7-{4-[1-(2-methoxyethyl)-4-(trifluoromethyl)-1H-imidazol-2-yl]phenyl}-3-methyl-5H,6H,7H,8H-imidazo[1,5-a]pyrazin-1-yl)-2-(propan-2-yl)pyridine]", "IC50": "≤ 1000"},
      {"compound": "Cc1nc(-c2cccnc2C(C)C)c2n1CCN(c1ccc(-c3nc(CO)co3)cc1)C2", "note": "[Compound 64, [2-(4-{3-methyl-1-[2-(propan-2-yl)pyridin-3-yl]-5H,6H,7H,8H-imidazo[1,5-a]pyrazin-7-yl}phenyl)-1,3-oxazol-4-yl]methanol]", "IC50": "10000 to 25000"},
      {"compound": "Cc1cnc(-c2ccc(N3CCn4c(C)nc(-c5cccnc5C(C)C)c4C3)cc2)o1", "note": "[Compound 65, 3-{3-methyl-7-[4-(5-methyl-1,3-oxazol-2-yl)phenyl]-5H,6H,7H,8H-imidazo[1,5-a]pyrazin-1-yl}-2-(propan-2-yl)pyridine]", "IC50": "≤ 1000"},
      {"compound": "Cc1nc(-c2cccnc2C(C)C)c2n1CCN(c1ccc(-c3ncn(C)n3)cc1)C2", "note": "[Compound 66, 3-{3-methyl-7-[4-(1-methyl-1H-1,2,4-triazol-3-yl)phenyl]-5H,6H,7H,8H-imidazo[1,5-a]pyrazin-1-yl}-2-(propan-2-yl)pyridine]", "IC50": "10000 to 25000"},
      {"compound": "Cc1nc(-c2cccnc2C(C)C)c2n1CCN(c1ccc(-n3nccn3)cc1)C2", "note": "[Compound 67, 3-{3-methyl-7-[4-(2H-1,2,3-triazol-2-yl)phenyl]-5H,6H,7H,8H-imidazo[1,5-a]pyrazin-1-yl}-2-(propan-2-yl)pyridine]", "IC50": "1000 to 10000"},
      {"compound": "Cc1nc(-c2cccnc2C(C)C)c2n1CCN(c1ccc(-c3nc(Cl)cn3C)cc1)C2", "note": "[Compound 68, 3-{7-[4-(4-chloro-1-methyl-1H-imidazol-2-yl)phenyl]-3-methyl-5H,6H,7H,8H-imidazo[1,5-a]pyrazin-1-yl}-2-(propan-2-yl)pyridine]", "IC50": "≤ 1000"},
      {"compound": "Cc1nc(-c2cccnc2C(C)C)c2n1CCN(c1ccc(-c3cnn(CC(C)C)c3)cc1)C2", "note": "[Compound 69, 3-(3-methyl-7-{4-[1-(2-methylpropyl)-1H-pyrazol-4-yl]phenyl}-5H,6H,7H,8H-imidazo[1,5-a]pyrazin-1-yl)-2-(propan-2-yl)pyridine]", "IC50": "1000 to 10000"},
      {"compound": "COCCn1cc(-c2ccc(N3CCn4c(C)nc(-c5cccnc5C(C)C)c4C3)cc2)cn1", "note": "[Compound 70, 3-(7-{4-[1-(2-methoxyethyl)-1H-pyrazol-4-yl]phenyl}-3-methyl-5H,6H,7H,8H-imidazo[1,5-a]pyrazin-1-yl)-2-(propan-2-yl)pyridine]", "IC50": "10000 to 25000"},
      {"compound": "Cc1nc(-c2cccnc2C(C)C)c2n1CCN(c1ccc(-c3cnn(C4COC4)c3)cc1)C2", "note": "[Compound 71, 3-(3-methyl-7-{4-[1-(oxetan-3-yl)-1H-pyrazol-4-yl]phenyl}-5H,6H,7H,8H-imidazo[1,5-a]pyrazin-1-yl)-2-(propan-2-yl)pyridine]", "IC50": "> 25000"},
      {"compound": "Cc1nc(-c2cccnc2C(C)C)c2n1CCN(c1ccc(-c3nc(C(F)(F)F)cn3C3CN(C)C3)cc1)C2", "note": "[Compound 73, 3-(3-methyl-7-{4-[1-(1-methylazetidin-3-yl)-4-(trifluoromethyl)-1H-imidazol-2-yl]phenyl}-5H,6H,7H,8H-imidazo[1,5-a]pyrazin-1-yl)-2-(propan-2-yl)pyridine]", "IC50": "≤ 1000"},
      {"compound": "Cc1nc(-c2cccnc2C(C)C)c2n1CCN(c1ccc(-c3cnn(C4CCOCC4)c3)cc1)C2", "note": "[Compound 74, 3-(3-methyl-7-{4-[1-(oxan-4-yl)-1H-pyrazol-4-yl]phenyl}-5H,6H,7H,8H-imidazo[1,5-a]pyrazin-1-yl)-2-(propan-2-yl)pyridine]", "IC50": "10000 to 25000"},
      {"compound": "Cc1nc(-c2cccnc2C(C)C)c2n1CCN(c1ccc(-c3nc(C(F)(F)F)cn3C)nc1)C2", "note": "[Compound 75, 5-{3-methyl-1-[2-(propan-2-yl)pyridin-3-yl]-5H,6H,7H,8H-imidazo[1,5-a]pyrazin-7-yl}-2-[1-methyl-4-(trifluoromethyl)-1H-imidazol-2-yl]pyridine]", "IC50": "≤ 1000"},
      {"compound": "Cc1nc(-c2cccnc2C(C)C)c2n1CCN(c1ccc(-c3nc(C(F)(F)F)cn3C3CC3)cc1)C2", "note": "[Compound 76, 3-(7-{4-[1-cyclopropyl-4-(trifluoromethyl)-1H-imidazol-2-yl]phenyl}-3-methyl-5H,6H,7H,8H-imidazo[1,5-a]pyrazin-1-yl)-2-(propan-2-yl)pyridine]", "IC50": "≤ 1000"},
      {"compound": "Cc1cn(C)c(-c2ccc(N3CCn4c(C)nc(-c5cccnc5C(C)C)c4C3)cc2)n1", "note": "[Compound 77, 3-{7-[4-(1,4-dimethyl-1H-imidazol-2-yl)phenyl]-3-methyl-5H,6H,7H,8H-imidazo[1,5-a]pyrazin-1-yl}-2-(propan-2-yl)pyridine]", "IC50": "≤ 1000"},
      {"compound": "Cc1nc(-c2cccnc2OC(F)F)c2n1CCN(c1ccc(-n3ccc(C(F)(F)F)n3)cc1)C2", "note": "[Compound 78, 2-(difluoromethoxy)-3-(3-methyl-7-{4-[3-(trifluoromethyl)-1H-pyrazol-1-yl]phenyl}-5H,6H,7H,8H-imidazo[1,5-a]pyrazin-1-yl)pyridine]", "IC50": "≤ 1000"},
      {"compound": "Cc1nc(-c2cccnc2C(C)C)c2n1CCN(c1cnc(-c3nc(C(F)(F)F)cn3C)cn1)C2", "note": "[Compound 79, 2-{3-methyl-1-[2-(propan-2-yl)pyridin-3-yl]-5H,6H,7H,8H-imidazo[1,5-a]pyrazin-7-yl}-5-[1-methyl-4-(trifluoromethyl)-1H-imidazol-2-yl]pyrazine]", "IC50": "≤ 1000"},
      {"compound": "Cc1nc(-c2cccnc2C(C)C)c2n1CCN(c1ccc(-c3nc(C4CC4)cn3C)cc1)C2", "note": "[Compound 80, 3-{7-[4-(4-cyclopropyl-1-methyl-1H-imidazol-2-yl)phenyl]-3-methyl-5H,6H,7H,8H-imidazo[1,5-a]pyrazin-1-yl}-2-(propan-2-yl)pyridine]", "IC50": "≤ 1000"},
      {"compound": "Cc1cc(Cl)nn1-c1ccc(N2CCn3c(C)nc(-c4cccnc4OC(F)F)c3C2)cc1", "note": "[Compound 81, 3-{7-[4-(3-chloro-5-methyl-1H-pyrazol-1-yl)phenyl]-3-methyl-5H,6H,7H,8H-imidazo[1,5-a]pyrazin-1-yl}-2-(difluoromethoxy)pyridine]", "IC50": "≤ 1000"},
      {"compound": "Cc1cc(Cl)n(-c2ccc(N3CCn4c(C)nc(-c5cccnc5OC(F)F)c4C3)cc2)n1", "note": "[Compound 82, 3-{7-[4-(5-chloro-3-methyl-1H-pyrazol-1-yl)phenyl]-3-methyl-5H,6H,7H,8H-imidazo[1,5-a]pyrazin-1-yl}-2-(difluoromethoxy)pyridine]", "IC50": "≤ 1000"},
      {"compound": "Cc1nc(-c2cccnc2C(C)C)c2n1CCN(c1cnc(C#N)nc1)C2", "note": "[Compound 83, 5-{3-methyl-1-[2-(propan-2-yl)pyridin-3-yl]-5H,6H,7H,8H-imidazo[1,5-a]pyrazin-7-yl}pyrimidine-2-carbonitrile]", "IC50": "> 25000"},
      {"compound": "COc1nc(-c2cccnc2C(C)C)c2n1CCN(c1ccc(-c3nc(C(F)(F)F)cn3C)cc1)C2", "note": "[Compound 84, 3-(3-methoxy-7-{4-[1-methyl-4-(trifluoromethyl)-1H-imidazol-2-yl]phenyl}-5H,6H,7H,8H-imidazo[1,5-a]pyrazin-1-yl)-2-(propan-2-yl)pyridine]", "IC50": "≤ 1000"},
      {"compound": "Cc1nc(-c2cccnc2C(C)C)c2n1CCN(c1ccc(-c3nc(C(F)(F)F)cn3C)cc1)C2C", "note": "(stereo not shown) [Compound 85, 3-[3,8-dimethyl-7-{4-[1-methyl-4-(trifluoromethyl)-1H-imidazol-2-yl]phenyl}-5H,6H,7H,8H-imidazo[1,5-a]pyrazin-1-yl]-2-(propan-2-yl)pyridine]", "IC50": "≤ 1000"},
      {"compound": "Cc1nc(-c2cccnc2C(C)C)c2n1CCN(c1ccc(-c3nc(C(F)(F)F)cn3C)cn1)C2C", "note": "(stereo not shown) [Compound 86, 2-[3,8-dimethyl-1-[2-(propan-2-yl)pyridin-3-yl]-5H,6H,7H,8H-imidazo[1,5-a]pyrazin-7-yl]-5-[1-methyl-4-(trifluoromethyl)-1H-imidazol-2-yl]pyridine]", "IC50": "≤ 1000"}
    ]},
    {"target": "USP1 (Homo sapiens, UniProt O94782)", "assay": "Biochemical Assay for USP1 Inhibition (Ub-Rho 110 fluorescence)", "conditions": "Table 6, additional compounds; 30 min preincubation, Enzyme 0.025 nM, Substrate Ub-Rho 110 25 nM; read-out: IC50", "procedure,_shortened": "as §1", "units": {"IC50": "nM"}, "values": [
      {"compound": "Cc1nc(-c2cccnc2C(C)C)c2n1CCCN(Cc1ccc(-c3nc(C(F)(F)F)cn3C)cc1)C2", "note": "[Compound C-2, 1-(2-isopropylpyridin-3-yl)-3-methyl-8-(4-(1-methyl-4-(trifluoromethyl)-1H-imidazol-2-yl)benzyl)-6,7,8,9-tetrahydro-5H-imidazo[1,5-a][1,4]diazepine]", "IC50": "1000 to 10000"},
      {"compound": "Cc1nc(-c2cccnc2C(C)C)c2n1CC(=O)N(c1ccc(-c3nc(C(F)(F)F)cn3C)cc1)C2", "note": "[Compound C-3, 1-(2-isopropylpyridin-3-yl)-3-methyl-7-(4-(1-methyl-4-(trifluoromethyl)-1H-imidazol-2-yl)phenyl)-7,8-dihydroimidazo[1,5-a]pyrazin-6(5H)-one]", "IC50": "> 25000"},
      {"compound": "Cc1nc(-c2ccccc2C(C)C)n2cc(N3CCC(c4nc(C(F)(F)F)cn4C)CC3)ccc12", "note": "[Compound C-4, 3-(2-isopropylphenyl)-1-methyl-6-(4-(1-methyl-4-(trifluoromethyl)-1H-imidazol-2-yl)piperidin-1-yl)imidazo[1,5-a]pyridine]", "IC50": "> 25000"},
      {"compound": "Cc1nc(-c2cccnc2C(C)C)c2n1CCN(c1ccc(-c3nc(C(F)(F)F)cn3C)cc1)C2=O", "note": "[Compound C-5, 1-(2-isopropylpyridin-3-yl)-3-methyl-7-(4-(1-methyl-4-(trifluoromethyl)-1H-imidazol-2-yl)phenyl)-6,7-dihydroimidazo[1,5-a]pyrazin-8(5H)-one]", "IC50": "> 25000"},
      {"compound": "Cc1nc(-c2cccnc2C(C)C)c2n1CCN(C(=O)c1ccc(-c3ccnn3C(C)C)nc1)C2", "note": "[Compound C-6, 3-(3-methyl-7-{6-[1-(propan-2-yl)-1H-pyrazol-5-yl]pyridine-3-carbonyl}-5H,6H,7H,8H-imidazo[1,5-a]pyrazin-1-yl)-2-(propan-2-yl)pyridine]", "IC50": "> 25000"}
    ]}
  ]
}
